Several values for one entry are separate records, joined by “and”; a condition that tells them apart may be missing. Equal entries are not always repeated. Where two headings read alike, the source gives them in different places.
Columns and labels:
human neutrophils = conditions: 30 mins GM-CSF and fMLP; pretreatment; cited from earlier work
[1] = tested on: β2 integrins on human neutrophils; test: flow cytometry of β2 integrin activation and exocytosis (mAb24, KIM127, TS1/18) after IL-8; format: cell-based; conditions: for inhibition at 10 µM: Homo sapiens, Neutrophil
Experimental: To monitor the dynamics of β2 integrin activation, 400 μL of 2.5×10^5 cells·mL^−1 neutrophils were assessed by an LSRII analyzer (BD Biosciences, San Jose, CA) for 10 s. After adding 0.5 μg·mL^−1 AF488-conjugated mAb24 and DL550-conjugated KIM127 (final concentration), cells were put back into the analyzer for another 5 minutes. Then, after adding 1 μg·mL^−1 IL-8, cells were put back into the analyzer for another 10 minutes. The curves showing the dynamics of integrin activation (FIGS. 2A, 2B) were generated by FlowJo software (version 10.6). The antibody specificities were validated in our previous study using β2 integrin knockout cells and β2-integrin-activation-deficient talin-1 knockout cells. Compensations were performed before all experiments.
To quantify the percentage of mAb24 and KIM127 epitopes and assess inhibition of β2 integrin exocytosis, pan-CD18 […] TS1/18, which has the same isotype (mouse IgG1) as mAb24 and KIM127, was used. […] Neutrophils were mixed with unconjugated mAb24 (1 μg·mL^−1), KIM127 (1 μg·mL^−1), […] (1 μg·mL^−1), or mouse IgG1 isotype control (1 μg·mL^−1), and incubated with 1 μg·mL^−1 IL-8 at RT for 10 min. After incubation, neutrophils were fixed by 1% PFA at 4° C. for 10 min. After two washes with PBS, cells were incubated with APC-conjugated rat anti-mouse IgG1 secondary mAb (1 μg·mL^−1) at RT for 10 min. After two washes with PBS, cell fluorescence was assessed with an LSRII (BD Biosciences, San Jose, CA) and analyzed with FlowJo software (version 10.6). The quantifications of mAb24, KIM127, TS1/18, and isotype mean fluorescence intensities (MFI) (FIGS. 2C-2E) were analyzed by FlowJo software (version 10.6) and obtained from six replicates. MFI of isotype controls was subtracted as background signal. Since mAb24, KIM127, and TS1/18 are all IgG1 isotypes and we used the same secondary antibody, the percentage of high-affinity and extended β2 integrins (FIGS. 2F and 2G) can be calculated by dividing the MFI of mAb24 and KIM127 by the MFI of TS1/18.

[2] = pharmacokinetics after i.p. injection in mice; format: in vivo, mouse; conditions: plasma
Experimental: Pharmacokinetics was performed through a service provided by the Shanghai Institute of Materia Medica. […] Blood samples (20 μL) were collected at 3 min, 15 min, 45 min, 2 h, 4 h, 8 h, and 24 h through femoral vein phlebotomy. 200 μL of methanol:acetonitrile (1:1, v/v) with internal standard was added to […] of plasma and vortexed thoroughly. After centrifuging at 11000 rpm, RT for 5 min, 20 μL of the supernatant was collected and mixed with 20 μL of water for analysis. Samples were analyzed by a TQ-S triple quadrupole mass spectrometer (Waters, Milford, MA, USA). An Acquity Uplc Beh C18 Column (1.7 μm, 2.0 mm×50 mm, Waters) was used for the analysis. Gradient elution was applied consisting of 5 mM […] containing 0.1% formic acid and methanol:acetonitrile (1/9, v/v) containing 0.1% formic acid.

## CC(C)(C)C(=O)/C(=C\c1cccc([N+](=O)[O-])c1)n1cncn1 [Nexinhib20, 4,4-dimethyl-1-(3-nitrophenyl)-2-(1H-1,2,4-triazol-1-yl)-1-penten-3-one]
Human neutrophils
  CD11b upregulation: diminished
[1]; 10 μM, RT 1 hour, 10 min 1 μg·mL^−1 IL-8
  β2 integrin exocytosis (total CD18 surface expression, TS1/18): inhibited significantly
[1]; 10 μM, 10 min after IL-8
  percentage of high-affinity β2 integrins (mAb24 MFI/TS1/18 MFI): reduced the percentage of high-affinity
[1]; RT 1 hour, 10 min 1 μg·mL^−1 IL-8, read-out: inhibition of IL-8-induced elevation of KIM127 (extended β2 integrins)
  inhibition at 10 µM: ~20%
[1]; RT 1 hour, 10 min 1 μg·mL^−1 IL-8, read-out: inhibition of IL-8-induced elevation of mAb24 (high-affinity β2 integrins)
  inhibition at 10 µM: ~75%
[2]; male, mouse, ip, 0.8 μmol per mouse, 4 h
  concentration at 4 h: < 28800 ng/mL and < 96 nM
[2]; male, mouse, ip, 0.8 μmol per mouse, one phase exponential decay fit, 95% CI
  half-life: 11.5 to 16.3 min
[2]
  time within which Nexinhib20 was degraded: ≤ 2 h

From patent publication US20240041838A1, “METHODS AND COMPOSITIONS FOR INHIBITION OF NEUTROPHIL RECRUITMENT IN MYCOCARDIAL ISCHEMIA-REPERFUSION INJURY” (University of Connecticut, priority 2022, published 2024)
